Measurements from article PMC9930120 (Journal of Chemical Information and Modeling, 2023).
Where two headings read alike, the source gives them in different places.

Key:
[1] = target: T1, human CB2 (Homo sapiens, UniProt P34972); assay: biochemical; format: binding; conditions: for CB2 Ki (μM, 95% CI) / CB2 pKi ± SEM / Ki: [3H]CP-55,940 displacement, CHO-K1 membranes
Experimental: The compounds selected for the in vitro binding assay were purchased via MolPort, SIA, Riga, Latvia (Supporting Information S2). Membrane preparations from CHO-K1 cells expressing the human CB2 (ChemiSCREEN Membrane Preparation Recombinant Human CB2 Cannabinoid Receptor. Merck, USA) were incubated in duplicate with 0.8 nM [^3H]CP-55,940 (specific activity: 101 Ci/mmole, PerkinElmer, USA) in a 50 mM Tris–HCl, pH = 7.4 buffer supplemented with 2.5 mM EDTA, 5 mM MgCl2, 0.5 mg/mL BSA and increasing concentrations of the compounds tested. Compounds were dissolved in 50% DMSO and added to the reaction mixture at 10 concentrations equally spaced on a log scale (10^–10–10^–4.5 M). The final DMSO concentration was 5%. […] The reaction mixture (500 μL) was incubated for 1.5 h at 30 °C. Before harvesting, Brandel Whatman GF/B Filter Paper was presoaked with 0.5% polyethylenimine buffer for 30 min and then washed with 2 mL of 50 mM Tris–HCl buffer (pH = 7.4) containing 0.5% BSA to minimize nonspecific binding. The reaction was terminated by depositing the samples onto the filter paper with the Brandel M–24 Cell Harvester. Samples were then rapidly washed three times with 2 mL of wash buffer (50 mM Tris–HCl pH 7.4, 2.5 mM EDTA, 5 mM MgCl2, 0.5 mg/mL BSA) to separate the bound radioligand from free. Filters were then air-dried for 1.5 h at 60 °C. After drying, filter discs were placed on a flexible 24-well plate and 500 μL of EcoScint-20 scintillant (PerkinElmer, USA) was added to each well. Plates were counted (2 min per well) in a Trilux MicroBeta counter (PerkinElmer, USA). Data were analyzed with GraphPad Prism 5.0 software.

[2] = target: T2, human CB1 receptors (Homo sapiens, UniProt P21554); assay: CB1 radioligand displacement assay ([3H]CP-55,940); format: binding; conditions: for CB1 Ki (μM, 95% CI) / CB1 pKi ± SEM: [3H]CP-55,940 displacement, Chem-1 membranes
T2 construct: purchased Merck; host or cells: Chem-1
Experimental: Membrane preparations from Chem-1 cells expressing the human CB1 receptors (ChemiSCREEN CB1 Cannabinoid Receptor Membrane Preparation. Merck, USA) were incubated in duplicate with 1 nM [^3H]CP-55,940 (specific activity: 108.5 Ci/mmole, PerkinElmer, USA) in a 50 mM Tris–HCl, pH = 7.4 buffer supplemented with 1 mM CaCl2, 5 mM MgCl2, 0.2% BSA and increasing concentrations of the compounds tested. Compounds were dissolved in 50% DMSO and added to the reaction mixture at 10 concentrations equally spaced on a log scale (10^–10–10^–4.5 M). The final DMSO concentration was 5%. […] The reaction mixture (500 μL) was incubated for 1.5 h at 30 °C. Before harvesting, Brandel Whatman GF/B Filter Paper was presoaked with 0.5% polyethylenimine buffer for 30 min and then washed with 2 mL of 50 mM Tris–HCl buffer (pH = 7.4) containing 0.5% BSA to minimize nonspecific binding. The reaction was terminated by depositing the samples onto the filter paper with the Brandel M-24 Cell Harvester. Samples were then rapidly washed three times with 2 mL of wash buffer (50 mM Tris–HCl pH 7.4, 500 mM NaCl, and 5 mM MgCl2) to separate the bound radioligand from the free one. The rest of the procedure was the same as for CB2.

[3] = target: T1, human CB2; assay: CB2 [35S]GTPγS assay; format: biochemical; set-up: purchased PerkinElmer ES-111-M400UA; host or cells: CHO-K1; conditions: compounds at 10 μM, 100 nM CP-55,940 as stimulating ligand
Experimental: Ten micromolar concentrations of each compound were incubated in triplicate with membrane preparations from CHO-K1 cells expressing the human CB2 receptor (0.5 μg per well) (PerkinElmer, Cat. No. ES-111-M400UA) in an assay buffer containing 50 mM Tris–HCl, pH = 7.4, 0.2 mM EGTA, 3 mM MgCl2, 100 mM NaCl, 30 μM GDP and 1 mg/mL BSA) in the presence of 0.08 nM [^35S] guanosine 5′-[γ-thio]triphosphate ([^35S]GTPγS) (specific activity: 1250 Ci/mmole, PerkinElmer). Nonspecific binding was determined with 100 μM of unlabeled GTPγS. CP-55,940 (100 nM) was used as stimulating ligand. The final DMSO concentration in the assay was 5%. The reaction mixture was incubated for 60 min at 30 °C. Next, the samples were deposited under vacuum with the FilterMate Harvester (PerkinElmer, USA) onto Unifilter GF/B Plates (PerkinElmer, USA) presoaked with wash buffer (50 mM Tris–HCl, pH = 7.4). The samples were then rapidly washed with 2 mL of wash buffer. Filter plates were dried for 30 min at 50 °C and 40 μL of MicroScint PS (PerkinElmer, USA) scintillation fluid was added to each well. Radioactivity was counted in a Trilux MicroBeta^2 counter (PerkinElmer, USA). Data were analyzed with GraphPad Prism 5.0 software. Results were expressed as percent of basal [^35S]GTPγS binding in the presence of CP-55,940 from three separate experiments. Basal binding was set to 100%.

[4] = target: T1, human CB2; conditions: cited from earlier work
[5] = read-out: CB2 pKi ± SEM (converted)

T1 sequence (P34972 whole entry): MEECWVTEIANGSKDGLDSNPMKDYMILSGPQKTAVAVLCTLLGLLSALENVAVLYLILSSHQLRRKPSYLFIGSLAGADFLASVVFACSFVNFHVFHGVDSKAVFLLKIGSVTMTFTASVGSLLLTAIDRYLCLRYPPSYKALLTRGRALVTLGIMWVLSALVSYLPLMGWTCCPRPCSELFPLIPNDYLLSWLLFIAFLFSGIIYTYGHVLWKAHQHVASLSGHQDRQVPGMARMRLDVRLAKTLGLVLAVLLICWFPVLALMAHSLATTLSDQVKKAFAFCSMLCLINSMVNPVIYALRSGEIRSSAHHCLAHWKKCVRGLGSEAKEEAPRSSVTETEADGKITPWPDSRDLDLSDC
T2 sequence (P21554 whole entry): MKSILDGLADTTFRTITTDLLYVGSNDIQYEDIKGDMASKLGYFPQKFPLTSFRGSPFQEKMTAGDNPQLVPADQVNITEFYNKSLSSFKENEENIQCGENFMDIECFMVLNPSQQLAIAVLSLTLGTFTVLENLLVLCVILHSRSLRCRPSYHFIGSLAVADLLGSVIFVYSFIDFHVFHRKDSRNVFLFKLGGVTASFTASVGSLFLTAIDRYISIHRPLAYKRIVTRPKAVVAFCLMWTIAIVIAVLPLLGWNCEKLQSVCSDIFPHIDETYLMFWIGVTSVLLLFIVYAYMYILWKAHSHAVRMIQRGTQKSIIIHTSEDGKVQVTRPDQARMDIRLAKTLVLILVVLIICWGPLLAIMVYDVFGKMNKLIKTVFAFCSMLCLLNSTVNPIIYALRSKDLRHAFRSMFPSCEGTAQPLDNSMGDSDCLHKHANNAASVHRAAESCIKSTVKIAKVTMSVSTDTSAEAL

| Structure (SMILES) | CB2 Ki (μM, 95% CI) [1] | CB2 pKi ± SEM [1] | other results |
| --- | --- | --- | --- |
| Cc1cc(C(=O)Nc2cccc(C)c2C)c2c(C)nn(Cc3ccccc3)c2n1 [AS-12] | no activity | no activity |  |
| O=C(NCc1cccs1)c1cccc(Nc2nn3c(=O)c4ccccc4nc3s2)c1 [AS-11] | no activity | no activity |  |
| COCc1cc2nn(CC(=O)NCc3ccccc3Cl)c(=O)n2c(-c2ccccc2)n1 [AS-14] | no activity | no activity |  |
| COc1cccc(-c2nn(Cn3nc([N+](=O)[O-])cc3C)c(-c3cccc(OC)c3)c2Cl)c1 [AS-9] |  |  | Ki [1, 5]: 2.09 µM; CB1 Ki (μM, 95% CI) [2]: no activity; CB1 pKi ± SEM [2]: no activity |
| COc1cccc(Oc2c(C)oc3c4c(ccc3c2=O)OCN(Cc2ccccn2)C4)c1 [AS-3] | no activity | no activity |  |
| Cc1ccccc1-c1cc(C(=O)N2CCN(Cc3ccc4c(c3)OCO4)CC2)c2ccccc2n1 [AS-5] |  |  | Ki [1, 5]: 0.209 µM; CB2 intrinsic activity [3]: CB2 antagonists; CB1 Ki (μM, 95% CI) [2]: no activity; CB1 pKi ± SEM [2]: no activity |
| CCCC(C)(C)c1ccc2c(c1)OC(C)(C)[C@@H]1CC=C(C)C[C@@H]21 [JWH-133] |  |  | Ki [4]: 3.4 nM |
| COc1ccc(C(=O)c2c(C)n(CCN3CCOCC3)c3cc(I)ccc23)cc1 [AM-630] |  |  | Ki [4]: 31.2 nM |
| Cc1nn(-c2ccccc2)c(C)c1C(=O)C(=O)Nc1cc(F)ccc1NC(=O)c1ccccn1 [AS-13] | no activity | no activity |  |
| Cc1nn(Cc2ccccc2)c(Cl)c1C(=O)NCc1ccccc1Cn1ccnc1 [AS-10] |  |  | Ki ([1]; read-out: CB2 Ki (μM, 95% CI)): 17.9 µM; Ki [1, 5]: 18.2 µM |
| Cc1nn(-c2ccccc2)c(C)c1CCc1nn2c(-c3ccccc3F)nnc2s1 [AS-4] | no activity | no activity |  |
| C[C@H](Sc1nnc2c3ccccc3nc(-c3ccccc3)n12)C(=O)NC[C@@H]1CCCO1 [AS-8] |  |  | Ki ([1]; read-out: CB2 Ki (μM, 95% CI)): 6.37 µM; CB1 Ki (μM, 95% CI) [2]: no activity; CB1 pKi ± SEM [2]: no activity |
| Cc1cc(CSc2nnc(-c3nn(Cc4ccccc4)c(=O)c4ccccc34)o2)no1 [AS-6] | no activity | no activity |  |
| N#Cc1c(Oc2cccc(OS(=O)(=O)CCCC(F)(F)F)c2)cccc1C(F)(F)F [BAY 59-3074] |  |  | Ki [4]: 45.5 nM |
| CN(Cc1ccccn1)C(=O)c1c2ccccc2c2n1CCCN(Cc1ccccc1)C2=O [AS-15] | no activity | no activity |  |
| COc1ccc(C(=O)/C=C(\C(=O)c2ccccc2)c2ccccc2)cc1CN1CCOCC1 [AS-7] |  |  | selectivity index for CB2 (Ki-CB1/Ki-CB2) [1]: > 40; Ki ([1]; CB2 Ki (μM, 95% CI)): 0.065 µM; Ki ([1]; CB2 pKi ± SEM): 0.0661 µM; CB2 intrinsic activity [3]: CB2 antagonists; Ki [2]: 2670 nM; CB1 pKi ± SEM [2]: 5.57 ± 0.9 |
| Cc1sc2nc(SCC(=O)c3ccc4c(c3)N(C)C(=O)CO4)nc(O)c2c1-c1ccccc1 [AS-1] | no activity | no activity |  |
| CCCCCc1cc(O)c(C/C=C(\C)CCC=C(C)C)c(O)c1 [Cannabigerol] |  |  | Ki [4]: 2920 nM |
| Cc1cc(C)n(C[C@@H](O)c2ccc(-n3c4c(c5ccccc5c3=O)C(=O)c3ccccc3-4)cc2)n1 [AS-16] | no activity | no activity |  |
| CCOC(=O)c1ccc(NC(=O)Cn2c(=O)nc(-c3ccccc3)c3cc(Cl)ccc32)cc1 [AS-2] | no activity | no activity |  |
